According to publication PMC4335020, “Single Oral Dose Pharmacokinetics of Decursin and Decursinol Angelate in Healthy Adult Men and Women” (PLoS ONE, 2015):

Legend:
[1] = system: primary cultures of rat cortical cells; set-up: method as in PMID 17637179; details: as low as 0.1 μmol/L; cited from earlier work
[2] = system: cultured prostate and breast cancer cells; set-up: method as in PMID 15705905, PMID 17363485, PMID 17986353; details: up to 100 μM; cited from earlier work
[3] = system: human umbilical vein endothelial (HUVEC) cells; set-up: method as in PMID 19307054; details: 1 μmol/L; cited from earlier work
[4] = set-up: method as in PMID 23364885; details: rat n = 3, oral 33.5 mg/kg D and 21.5 mg/kg DA, cited from earlier work; for Cmax: read-out: C max, nmol/, Mean (SD)
[5] = set-up: method as in PMID 24026903; details: in vitro; cited from earlier work
[6] = Stability of D and DA in fresh human whole blood and plasma; format: in vitro ADME; details: 37°C for 1 h, no detectable generation of DOH and other metabolites (data not shown)
Procedure: To rule out possible artifacts of blood collection, processing and blood-borne esterases, we tested the stability of D and DA in freshly obtained human whole blood and plasma. There was no loss of D and DA in plasma and whole blood after incubation at 37°C for 1 h, with no detectable generation of DOH and other metabolites (data not shown).

[7] = set-up: method as in ref 23 = [23]; 23 Zhang J, Li L, Tang S, Zhang Y, Markiewski M, et al. (2013) Subchronic Toxicological Evaluation of Ethanol Extract of Medicinal Herb Angelica gigas Nakai and its Pyranocoumarin Tissue Distribution; details: rodents; cited from earlier work
[8] = system: murine colon carcinoma CT-26 cells; set-up: method as in PMID 21170925; details: daily oral 10 mg/kg for 14 days, 30 minutes prior to CT-26 injection through tail vein; cited from earlier work
[9] = set-up: method as in ref (9) of IRB protocol; details: ref (9) of IRB protocol; cited from earlier work

| SMILES | protective effect on glutamate-injured cells [1] | anti-proliferative effect [2] | VEGF-induced proliferation and capillary-tube formation [3] | AUC0–48h, h nmol/L, Mean (SD) [4] | T max, h, median (range) [4] | Cmax [4] [nM] | rate of metabolism by human vs mouse and rat liver S9 fraction [5] | loss after incubation in plasma and whole blood [6] | tissue/plasma ratios [7] | formation of tumor nodules in the lungs and lung weight [8] | rate of metabolism by human vs mouse and rat liver microsomes [9] |
| --- | --- | --- | --- | --- | --- | --- | --- | --- | --- | --- | --- |
| CC1(C)Oc2cc3oc(=O)ccc3cc2C[C@@H]1O [DOH, decursinol] | strong protective effect | little anti-proliferative effect | significantly inhibited | 81272 (6829) h nmol/L | 4 (3–8) h | 5640 |  |  |  |  |  |
| CC(C)=CC(=O)O[C@H]1Cc2cc3ccc(=O)oc3cc2OC1(C)C [D, decursin] |  |  |  | 36.0 (14.3) h nmol/L | 1 (0.5–2) h | 7.3 | metabolized more slowly by human liver S9 fraction | no loss | substantially greater than that of DOH | reduced the formation of tumor nodules in the lungs and decreased lung weight | metabolized much slower by human |
| C/C=C(/C)C(=O)O[C@H]1Cc2cc3ccc(=O)oc3cc2OC1(C)C [DA, decursinol angelate] |  |  |  | 64.3 (8.8) h nmol/L | 1 (0.5–2) h | 7.3 | metabolized more slowly by human liver S9 fraction | no loss | substantially greater than that of DOH |  | metabolized much slower by human |
